Measured values reported in patent US20260138988A1, “Spiropyrrolidine Derived Antiviral Agents” (Enanta Pharmaceuticals, Inc., priority 2021, published 2026).

What was measured:
SARS-CoV-2 3CL-protease = SARS-CoV-2 3CL-protease (Severe acute respiratory syndrome coronavirus 2, UniProt P0DTD1); test: SARS-CoV-2 3C-Like (3CL) Protease Fluorescence Assay (FRET); format: biochemical; details: SARS-CoV-2 3CL-protease 10 nM, test compounds 0-10 μM, duplicate, read-out: IC50
[1] = tested on: 229E human corona virus (hCoV); test: 229E live virus assay (MRC-5 cells, CPE, ATPlite readout); format: cell-based, hCoV-229E; details: Human coronavirus 229E, MRC5, 144 h; hCoV-229E in MRC-5 cells, MOI 0.05, 6 days at 34° C., ATPlite, run in duplicate; read-out: 229E EC50

Structure (SMILES) | IC50 (SARS-CoV-2 3CL-protease) [nM] | EC50 [1] [nM]
Cc1cccc(C)c1C(=O)N[C@@H](C)C(=O)N(C)[C@@H](CC(C)C)C(=O)N1C[C@]2(C[C@H]1C#N)C(=O)Nc1ccccc12 [Example 148] | < 100 | < 100
CC(C)C[C@@H](C(=O)N1C[C@]2(C[C@H]1C#N)C(=O)Nc1ccccc12)N(C)C(=O)[C@H](C)NC(=O)c1ccc(-c2ccc(F)cc2)cc1F [Example 149] | < 100 | < 100
CC(C)C[C@@H](C(=O)N1C[C@]2(C[C@H]1C#N)C(=O)Nc1ccccc12)N(C)C(=O)[C@H](C)NC(=O)c1ccccc1-c1ccc(C(F)(F)F)cc1 [Example 150] | < 100 | 100 to 1000
CC(C)C[C@@H](C(=O)N1C[C@]2(C[C@H]1C#N)C(=O)Nc1ccccc12)N(C)C(=O)[C@H](C)NC(=O)c1ccc(F)c(-c2ccc(F)cc2)c1 [Example 151] | < 100 | 100 to 1000
C[C@@H](C(=O)N(C)[C@@H](CC(C)(C)C)C(=O)N1C[C@]2(C[C@H]1C#N)C(=O)Nc1ccccc12)N1CCCC1=O [Example 152] | 100 to 1000 | 100 to 1000
C[C@H](NC(=O)c1ccc(OC(F)(F)F)cc1)C(=O)N(C)[C@@H](CC(C)(C)C)C(=O)N1C[C@]2(C[C@H]1C#N)C(=O)Nc1ccccc12 [Example 153] | < 100 | < 100
C[C@H](NC(=O)c1ccc(F)cc1F)C(=O)N(C)[C@@H](CC(C)(C)C)C(=O)N1C[C@]2(C[C@H]1C#N)C(=O)Nc1ccccc12 [Example 154] | < 100 | < 100
C[C@H](NC(=O)c1ccc(F)c(Cl)c1)C(=O)N(C)[C@@H](CC(C)(C)C)C(=O)N1C[C@]2(C[C@H]1C#N)C(=O)Nc1ccccc12 [Example 155] | < 100 | < 100
C[C@H](NC(=O)c1ccc(F)c(F)c1)C(=O)N(C)[C@@H](CC(C)(C)C)C(=O)N1C[C@]2(C[C@H]1C#N)C(=O)Nc1ccccc12 [Example 156] | < 100 | < 100
C[C@@H](C(=O)N(C)[C@@H](CC(C)(C)C)C(=O)N1C[C@]2(C[C@H]1C#N)C(=O)Nc1ccccc12)n1cc(C2CC2)nn1 [Example 157] | < 100 | < 100
CC(C)C[C@@H](C(=O)N1C[C@]2(C[C@H]1C#N)C(=O)Nc1ccccc12)N(C)C(=O)[C@@H]1CC[C@@H](c2ccccc2)N1 [Example 158] | < 100 | < 100
CC(C)C[C@@H](C(=O)N1C[C@]2(C[C@H]1C#N)C(=O)Nc1ccccc12)N(C)C(=O)[C@@H]1CC[C@H](c2ccccc2)N1 [Example 159] | < 100 | 100 to 1000
CC(C)C[C@@H](C(=O)N1C[C@]2(C[C@H]1C#N)C(=O)Nc1ccccc12)N(C)C(=O)[C@@H]1CCCN1C [Example 160] | < 100 | < 100
CC(C)C[C@@H](C(=O)N1C[C@]2(C[C@H]1C#N)C(=O)Nc1ccccc12)N(C)C(=O)[C@@H]1CCCN1C(C)C [Example 161] | < 100 | < 100
CC(C)C[C@@H](C(=O)N1C[C@]2(C[C@H]1C#N)C(=O)Nc1ccccc12)N(C)C(=O)[C@@H]1CC[C@@H](c2ccccc2)N1C(C)C [Example 162] | < 100 | < 100
Cc1ncc(C(=O)N[C@@H](C)C(=O)N(C)[C@@H](CC(C)C)C(=O)N2C[C@]3(C[C@H]2C#N)C(=O)Nc2ccccc23)s1 [Example 163] | < 100 | < 100
CC(C)C[C@@H](C(=O)N1C[C@]2(C[C@H]1C#N)C(=O)Nc1ccccc12)N(C)C(=O)[C@H](C)NC(=O)c1ccc(F)cn1 [Example 164] | < 100 | < 100
CC(C)C[C@@H](C(=O)N1C[C@]2(C[C@H]1C#N)C(=O)Nc1ccccc12)N(C)C(=O)[C@H](C)NC(=O)c1ccc(F)c(F)c1 [Example 165] | < 100 | < 100
Cc1cc(C(=O)N[C@@H](C)C(=O)N(C)[C@@H](CC(C)C)C(=O)N2C[C@]3(C[C@H]2C#N)C(=O)Nc2ccccc23)no1 [Example 166] | < 100 | < 100
CC(C)C[C@H]1C(=O)N2C[C@]3(C[C@H]2C#N)C(=O)Nc2ccc(cc23)CCCCC[C@H](NC(=O)OC(C)(C)C)C(=O)N1C [Example 373] | < 100 | 100 to 1000
